Patent US20230301968A1 (ZEPHAPHARM LTD, priority 2020, published 2023)

Legend:
Format in all cases: in vitro ADME
CYP2B6 = target: T1, CYP2B6 (Homo sapiens, UniProt P20813); assay: Cytochrome P450 reaction phenotyping, recombinant CYP2B6
T1 construct: purchased
T1 sequence (P20813 1-491): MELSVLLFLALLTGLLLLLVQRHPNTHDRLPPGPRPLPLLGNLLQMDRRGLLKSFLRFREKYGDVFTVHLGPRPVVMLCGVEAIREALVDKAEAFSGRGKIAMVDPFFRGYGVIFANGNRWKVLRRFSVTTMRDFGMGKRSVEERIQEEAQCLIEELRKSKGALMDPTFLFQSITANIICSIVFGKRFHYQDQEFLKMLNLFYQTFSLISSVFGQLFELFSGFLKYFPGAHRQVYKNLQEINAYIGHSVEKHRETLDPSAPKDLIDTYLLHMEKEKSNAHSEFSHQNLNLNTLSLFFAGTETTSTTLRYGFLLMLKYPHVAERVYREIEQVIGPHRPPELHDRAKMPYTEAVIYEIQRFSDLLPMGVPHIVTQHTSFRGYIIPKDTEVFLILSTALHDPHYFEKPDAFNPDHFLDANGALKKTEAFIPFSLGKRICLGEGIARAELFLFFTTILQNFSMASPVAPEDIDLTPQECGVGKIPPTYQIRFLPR
Description: (§1) The amount of test compound remaining at each time point was analysed by LC-MS/MS. Incubations in control recombinant enzymes were also performed to assess non-enzymatic mediated stability.
(§2) Incubations were also performed using control Bactosomes™ (no cytochrome P450 enzymes present) to reveal any non-enzymatic degradation. Control compounds known to be metabolised specifically by each P450 isoform were included. All incubations were performed singularly for each test compound. […] The reactions were stopped by transferring an aliquot of incubate to quench solvent at the appropriate time points, in a 1:3 ratio. The termination plates were centrifuged at 3,000 rpm for 20 min at 4° C. to precipitate the protein. Following protein precipitation, the sample supernatants were analysed using LC-MS/MS, along with internal standard (1:1 supernatant to internal standard).
(§3) Following correction for any loss in the incubations with the control Bactosomes™, from a plot of In peak area ratio (compound peak area/internal standard peak area) against time, the gradient of the line was determined. Subsequently, half-life (t½) was calculated using the equations below: […]

CYP2D6 = target: T2, CYP2D6 (Homo sapiens, UniProt P10635); assay: Cytochrome P450 reaction phenotyping, recombinant CYP2D6
T2 construct: purchased
T2 sequence (P10635 whole entry): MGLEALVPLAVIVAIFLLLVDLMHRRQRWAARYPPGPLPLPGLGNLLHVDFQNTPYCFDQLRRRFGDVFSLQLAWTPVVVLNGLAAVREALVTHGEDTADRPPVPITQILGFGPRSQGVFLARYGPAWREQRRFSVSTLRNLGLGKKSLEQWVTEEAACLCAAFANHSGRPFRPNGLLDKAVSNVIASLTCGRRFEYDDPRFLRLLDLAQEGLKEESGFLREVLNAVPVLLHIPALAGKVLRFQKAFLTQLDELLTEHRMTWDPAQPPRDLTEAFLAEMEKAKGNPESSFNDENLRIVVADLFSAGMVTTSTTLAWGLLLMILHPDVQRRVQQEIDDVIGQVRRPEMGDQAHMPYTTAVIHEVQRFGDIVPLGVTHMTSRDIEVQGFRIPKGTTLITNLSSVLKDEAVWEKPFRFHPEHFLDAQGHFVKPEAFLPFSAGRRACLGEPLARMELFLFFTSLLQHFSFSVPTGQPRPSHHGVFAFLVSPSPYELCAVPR
Description: as §1, §2, §3

CYP1A2 = target: T3, CYP1A2 (Homo sapiens, UniProt P05177); assay: Cytochrome P450 reaction phenotyping, recombinant CYP1A2
T3 construct: purchased
T3 sequence (P05177 1-516): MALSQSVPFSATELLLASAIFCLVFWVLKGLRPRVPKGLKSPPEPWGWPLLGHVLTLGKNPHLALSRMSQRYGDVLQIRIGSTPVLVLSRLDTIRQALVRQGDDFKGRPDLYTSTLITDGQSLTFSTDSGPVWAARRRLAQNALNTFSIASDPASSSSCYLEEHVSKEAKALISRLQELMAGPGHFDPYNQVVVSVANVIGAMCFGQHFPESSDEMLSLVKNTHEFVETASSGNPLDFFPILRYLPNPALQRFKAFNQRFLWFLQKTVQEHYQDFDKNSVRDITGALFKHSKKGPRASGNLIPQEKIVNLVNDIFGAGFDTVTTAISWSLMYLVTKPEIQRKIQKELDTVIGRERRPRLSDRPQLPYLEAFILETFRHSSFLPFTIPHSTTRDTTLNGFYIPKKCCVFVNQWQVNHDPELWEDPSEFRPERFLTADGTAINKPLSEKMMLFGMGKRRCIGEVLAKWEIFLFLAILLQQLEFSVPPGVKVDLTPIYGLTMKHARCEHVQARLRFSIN
Description: as §1, §2, §3

CYP3A4 = target: T4, CYP3A4 (Homo sapiens, UniProt P08684); assay: Cytochrome P450 reaction phenotyping, recombinant CYP3A4
T4 construct: purchased
T4 sequence (P08684 whole entry): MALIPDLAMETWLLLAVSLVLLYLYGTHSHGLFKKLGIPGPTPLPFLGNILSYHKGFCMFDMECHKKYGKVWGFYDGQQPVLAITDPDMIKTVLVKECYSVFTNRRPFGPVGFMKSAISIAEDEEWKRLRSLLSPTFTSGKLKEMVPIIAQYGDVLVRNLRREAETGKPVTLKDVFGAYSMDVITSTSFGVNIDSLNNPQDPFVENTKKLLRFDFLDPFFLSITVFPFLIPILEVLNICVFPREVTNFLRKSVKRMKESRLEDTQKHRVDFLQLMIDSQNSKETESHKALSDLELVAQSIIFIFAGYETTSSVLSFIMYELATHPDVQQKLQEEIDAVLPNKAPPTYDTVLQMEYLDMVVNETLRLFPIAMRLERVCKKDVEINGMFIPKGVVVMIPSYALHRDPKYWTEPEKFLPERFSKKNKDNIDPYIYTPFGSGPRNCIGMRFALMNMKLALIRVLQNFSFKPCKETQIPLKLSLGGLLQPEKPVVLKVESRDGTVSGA
Description: as §1, §2, §3

COC(=O)Nc1nc2cc(C(=O)c3ccc(F)cc3)ccc2[nH]1 [Flubendazole, methyl N-[6-(4-fluorobenzoyl)-1H-benzimidazol-2-yl]carbamate]
Compound Remaining (% of 0 min) (CYP2B6; CYP2B6, 0 min): 100% | Compound Remaining (% of 0 min) (CYP2B6; CYP2B6, 5 min): 96.5% | Compound Remaining (% of 0 min) (CYP2B6; CYP2B6, 15 min): 95.8% | Compound Remaining (% of 0 min) (CYP2B6; CYP2B6, 30 min): 97.8% | Compound Remaining (% of 0 min) (CYP2B6; CYP2B6, 45 min): 104% | half-life at 1 µM (CYP2B6; human, pH 7.4, 1 µM substrate, recombinant CYP2B6, NADPH, minus value = not metabolised, read-out: t½): ≥ 2.45 h | t½ (CYP2D6; 1 µM substrate, recombinant CYP2D6, NADPH): 2.45 h | Compound Remaining (% of 0 min) (CYP2D6; CYP2D6, 0 min): 100% | Compound Remaining (% of 0 min) (CYP2D6; CYP2D6, 5 min): 93.1% | Compound Remaining (% of 0 min) (CYP2D6; CYP2D6, 15 min): 90.0% | Compound Remaining (% of 0 min) (CYP2D6; CYP2D6, 30 min): 85.6% | Compound Remaining (% of 0 min) (CYP2D6; CYP2D6, 45 min): 78.9% | half-life at 1 µM (CYP2D6; human, pH 7.4, 1 µM substrate, recombinant CYP2D6, NADPH, read-out: t½): ≥ 2.45 h | Compound Remaining (% of 0 min) (CYP1A2; CYP1A2, 0 min): 100% | Compound Remaining (% of 0 min) (CYP1A2; CYP1A2, 5 min): 38.6% | Compound Remaining (% of 0 min) (CYP1A2; CYP1A2, 15 min): 1.30% | Compound Remaining (% of 0 min) (CYP1A2; CYP1A2, 30 min): 0.0440% | Compound Remaining (% of 0 min) (CYP1A2; CYP1A2, 45 min): 0.002% | half-life at 1 µM (CYP1A2; human, pH 7.4, 1 µM substrate, recombinant CYP1A2, NADPH, 30 and 45 minute time points excluded, read-out: t½): 2.34 min | Compound Remaining (% of 0 min) (CYP3A4; CYP3A4, 0 min): 100% | Compound Remaining (% of 0 min) (CYP3A4; CYP3A4, 5 min): 94.6% | Compound Remaining (% of 0 min) (CYP3A4; CYP3A4, 15 min): 98.2% | Compound Remaining (% of 0 min) (CYP3A4; CYP3A4, 30 min): 100% | Compound Remaining (% of 0 min) (CYP3A4; CYP3A4, 45 min): 97.5% | half-life at 1 µM (CYP3A4; human, pH 7.4, 1 µM substrate, recombinant CYP3A4, NADPH, minus value = not metabolised, read-out: t½): ≥ 2.45 h
